Non-standard residues stand in square brackets, D forms with d. hArg = N=C(N)NCCCC[C@H](N)C(=O)O; Cit = NC(=O)NCCC[C@H](N)C(=O)O; Orn = NCCC[C@H](N)C(=O)O
Molecular target: T1, murine E^d MHC class II allele (Mus musculus, UniProt P01904+P01915)
T1 sequence (P01904 26-255): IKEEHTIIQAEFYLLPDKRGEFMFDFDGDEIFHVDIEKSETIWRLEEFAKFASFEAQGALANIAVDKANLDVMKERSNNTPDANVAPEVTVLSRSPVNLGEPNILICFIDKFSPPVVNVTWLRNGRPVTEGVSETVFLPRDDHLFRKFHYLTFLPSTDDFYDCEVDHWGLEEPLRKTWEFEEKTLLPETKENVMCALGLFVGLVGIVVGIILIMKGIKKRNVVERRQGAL
T1 sequence (P01915 27-264 limits assumed): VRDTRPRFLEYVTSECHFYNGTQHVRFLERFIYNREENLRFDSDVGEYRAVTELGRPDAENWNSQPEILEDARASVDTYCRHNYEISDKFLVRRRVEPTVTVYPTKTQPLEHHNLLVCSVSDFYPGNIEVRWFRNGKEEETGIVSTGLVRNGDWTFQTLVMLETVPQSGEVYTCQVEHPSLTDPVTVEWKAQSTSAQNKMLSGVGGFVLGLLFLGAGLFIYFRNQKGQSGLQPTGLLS
Experiment: antigenic peptide prepulse assay, E^d allele (fixed APC prepulsed with HEL106-116)
Type: cell-based
Set-up: The A20 and CH27 B cell lymphoma lines express H-2^d and H-2^k alleles, respectively; endogenous in cells; host or cells: A20 B cell lymphoma (mitomycin C-treated or paraformaldehyde-fixed)
Conditions: AE peptide 64 μM; for Activity in antigenic peptide prepulse assay, E^d (baseline without AE peptide = 1.00): Table 19, prepulse 12 μM HEL106-116
Method: In a second type of assay, the “peptide prepulse assay”, the antigenic peptide is incubated with paraformaldehyde-fixed APC for 6 h. The APC are washed and incubated for 24 h with the AE101 series homolog and the T cell hybridoma specific for the antigenic peptide. After that incubation, an aliquot of the culture supernatant is transferred to a second culture to measure the relative degree of T hybridoma stimulation, as reflected in the effect of released interleukins on the growth of an interleukin-dependent, indicator cell line, as described above.
The two above described assays measure different aspects of the molecular mechanism of the AE101 series of peptides. In the “simultaneous assay”, AE101 series peptides are thought to induce the release of endogenously bound peptides and to permit the binding of the second, specific antigenic peptide which is relatively abundant in the culture fluid. The AE101 series peptides enhance antigenic peptide-specific T cell responses in simultaneous assays. In the “peptide prepulse” assay, the specific antigenic peptide becomes bound to MHC class II molecules on the surface of the fixed APC during the 6 h prepulse incubation. The effect of the AE101 series homologs is then thought to release that antigenic peptide, resulting in an apparent suppression of the immune response.
The AE101 series peptides are thought to contact the MHC class II molecules at a discrete site outside the antigenic peptide-binding groove. AE101 peptide binding to this “Ii-KEY” site is thought to induce a conformational change in the MHC class II molecules accelerating the dissociation of previously bound antigenic peptide. […] The AE101 series peptides thus inhibit antigenic peptide-specific T cell responses in the “peptide prepulse” assays.
Antigenic peptide-specific T cell activation was measured by the following procedure. Mitomycin C-treated A20 cells (A^dE^d) or CH27 cells APC (A^kE^k) were generated by incubating 5×10^6 cells/mL for 20 min at 37° C. with 0.025 mg/mL of mitomycin C (Sigma) in Dulbecco's Modified Eaglel's Medium (DMEM)/10 mM N-2(hydroxyethylpiperazine-N″[2-ethanesulfonic acid] (HEPES), followed by two washes with four volumes of DMEM-5% fetal calf serum (FCS), 10 mM HEPES. Fixed APC were generated by treating 1×10^6 cells/mL for 5 min with 0.5% paraformaldehyde in PBS (pH 7.2), followed by two washes with four volumes of DMEM-10% FCS, 10 mM HEPES. T cell hybridomas were irradiated 2200 rads before each assay.
The “peptide prepulse assay” was carried out under essentially the same conditions as described for the “simultaneous assay” with the following modifications. Fixed APC were first incubated for 6 h at 1×10^6 cells/mL in complete DMEM-5% FCS in 24-well microculture plates (1 mL/well) with antigenic peptide, followed by four washes with 10 volumes of DMEM-5% FCS. The cells were then exposed to varying concentrations of AE101 series peptide (64 μM, 16 μM, 4 μM, and 1 μM) for 24 h in the presence of the T cell hybridoma specific to the antigenic peptide. Interleukin release from these cultures was measured by proliferation of HT-2 cells to interleukins in supernatants transferred from the primary culture. Generally, a single dose of 64 μM of each AE101 series peptide was used. The baseline T cell response was measured by culturing T hybridoma cells with the antigenic peptide-prepulsed APC in the absence of AE101 series peptides.
[…] […] Paraformaldehyde-treated APC (fixed APC) expressing MHC class II molecules were incubated with antigenic peptide for 6 h (HEL106-116 for E^d and PGCC81-104 for E^k). After this incubation, the prepulsed APC were washed and cultured with T hybridoma cells and AE101 series peptides. […] The AE101 series peptide concentrations were 64 μM for E^d and 16 μM for E^k. The dilutions of supernatant taken into the HT-2 cell assay were 1:4 for Ed and 1:2 for E^k.

[1] = Table 20, prepulse 3 μM antigenic peptide, supernatant 1:2
[2] = Table 21, prepulse 24 μM antigenic peptide, supernatant 1:8

Substance | Activity in antigenic peptide prepulse assay, E^d (baseline = 1.00) [1] | Activity in antigenic peptide prepulse assay, E^d (baseline without AE peptide = 1.00) (supernatant 1:4) | other results
Ac-Y Q MKLPKSAK-NH2 [AE138] | 0.73 | – | –
Ac-Y Y MKLPKSAK-NH2 [AE140] | 0.78 | – | –
Ac-YAMKLPKSAK-NH2 [AE121] | 0.53 | – | –
Ac-YRM-NH2 [AE118] | – | 0.68 | –
Ac-YRMK-NH2 [AE117] | – | 0.65 | –
Ac-YRMKL hydrP KSAK-NH2 (Ac-YRMKL[hydrP]KSAK-NH2) [AE143] | – | – | Activity in antigenic peptide prepulse assay, E^d (baseline = 1.00) [2]: 0.18
Ac-YRMKL-NH2 [AE116] | – | 0.80 | –
Ac-YRMKLP-NH2 [AE115] | – | 0.49 | –
Ac-YRMKLPK-NH2 [AE113] | – | 0.10 | –
Ac-YRMKLPKSAK-NH2 [AE109] | 0.28 | 0.11 | Activity in antigenic peptide prepulse assay, E^d (baseline = 1.00) [2]: 0.10
Ac-Y[Cit]MKLPKSAK-NH2 [AE131] | 0.69 | – | Activity in antigenic peptide prepulse assay, E^d (baseline = 1.00) (Table 25, prepulse 24 μM antigenic peptide, supernatant 1:4): 0.61
Ac-Y[Orn]MKLPKSAK-NH2 [AE130] | 0.79 | – | –
Ac-Y[hArg]MKLPKSAK-NH2 [AE132] | 0.58 | – | Activity in antigenic peptide prepulse assay, E^d (baseline = 1.0) (Table 26, prepulse 24 μM antigenic peptide, supernatant 1:2): 0.82
Ac-l RMKLPK-NH2 [AE160] | – | – | Activity in antigenic peptide prepulse assay, E^d (baseline = 1.00) (Table 22, prepulse 6 μM antigenic peptide, supernatant 1:8): 0.40
YRMKLPKSAKPVSQMR [AE101] | 0.25 | – | –
